# Assay results as given in US20230265116A1, “DEGRADATION OF (EGFR) BY CONJUGATION OF EGFR INHIBITORS WITH E3 LIGASE LIGAND AND METHODS OF USE” (BEIGENE, LTD., priority 2020, published 2023).
# Experiments:
# Format in all cases: cell-based
# [1] = biological target: T1, EGFR (HCC827 cells) (Homo sapiens, UniProt P00533, DEL746-750); experiment: EGFR degradation HTRF assay, HCC827 cells; settings: HCC827, 16h treatment; for Dmax: maximum percentage of degradation
# T1 construct: endogenous in cells; host or cells: HCC827
# T1 sequence (P00533 with tags, fused parts or gaps DEL746-750): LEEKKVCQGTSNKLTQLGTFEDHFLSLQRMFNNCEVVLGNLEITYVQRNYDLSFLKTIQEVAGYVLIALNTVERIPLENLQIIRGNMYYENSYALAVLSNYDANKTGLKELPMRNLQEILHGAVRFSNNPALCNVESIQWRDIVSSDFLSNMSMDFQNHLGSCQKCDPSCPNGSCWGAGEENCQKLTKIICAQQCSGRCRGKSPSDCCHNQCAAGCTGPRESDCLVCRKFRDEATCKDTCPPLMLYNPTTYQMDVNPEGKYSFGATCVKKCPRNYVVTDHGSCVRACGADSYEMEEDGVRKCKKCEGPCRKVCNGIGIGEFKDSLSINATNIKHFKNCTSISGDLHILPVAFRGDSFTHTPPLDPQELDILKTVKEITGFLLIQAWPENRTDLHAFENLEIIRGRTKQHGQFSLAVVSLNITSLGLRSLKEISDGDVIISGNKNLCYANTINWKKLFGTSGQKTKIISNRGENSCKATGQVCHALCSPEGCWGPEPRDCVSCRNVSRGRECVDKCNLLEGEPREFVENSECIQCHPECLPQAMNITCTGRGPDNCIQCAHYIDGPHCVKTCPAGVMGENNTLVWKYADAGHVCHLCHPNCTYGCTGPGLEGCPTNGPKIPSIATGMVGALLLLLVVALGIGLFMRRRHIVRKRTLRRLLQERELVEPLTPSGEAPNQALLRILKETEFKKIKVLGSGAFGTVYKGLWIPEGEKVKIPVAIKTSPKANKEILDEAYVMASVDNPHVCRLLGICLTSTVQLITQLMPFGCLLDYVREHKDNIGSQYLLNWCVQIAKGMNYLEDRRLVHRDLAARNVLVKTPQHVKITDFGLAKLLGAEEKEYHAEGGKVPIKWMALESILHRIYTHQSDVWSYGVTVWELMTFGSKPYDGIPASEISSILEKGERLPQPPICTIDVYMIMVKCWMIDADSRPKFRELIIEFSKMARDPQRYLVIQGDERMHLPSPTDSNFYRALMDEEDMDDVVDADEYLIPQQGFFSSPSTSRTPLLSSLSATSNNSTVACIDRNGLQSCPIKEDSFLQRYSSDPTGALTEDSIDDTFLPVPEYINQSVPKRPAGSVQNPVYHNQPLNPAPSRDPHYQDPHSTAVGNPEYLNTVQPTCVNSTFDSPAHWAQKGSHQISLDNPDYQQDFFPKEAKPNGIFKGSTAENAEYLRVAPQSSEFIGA
# Protocol: BaF3 WT(wild type), BaF3-LTC(L858R/T790M/C797S) and BaF3-DTC(Del19/T790M/C797S) cells are treated with compounds diluted in 0.2% DMSO cell culture medium and incubate for 16h, 37° C., 5% CO2, H1975-#36, H1975-#28, H1975-#23 and HCC827 cells are treated with compounds diluted in 0.2% DMSO cell culture medium on day 2, incubate for 16h, 37° C., 5% CO2.the final concentriation of compounds in all assay is start with 10 uM, 5-fold dilution, total 8 doses were included.
# After 16h treatment, add HTRF lysis buffer to each well; seal the plate and incubate 1 hour at room temperature on a plate shaker; Once the cells are lysed, 16 μL of cell lysate are transferred to a PE 384-well HTRF detection plate; 4 μL of pre-mixed HTRF antibodies are added to each well; Cover the plate with a plate sealer, spin 1000 rpm for 1 min, Incubate overnight at room temperature; Read on BMG PheraStar with HTRF protocol (337 nm-665 nm-620 nm).
# The inhibition (degradation) percentage of the compound was calculated by the following equation: Inhibition percentage of Compound=100-100×(Signal-low control)/(High control-low control), wherein signal=each test compound group
# High control=Cell group with added DMSO and without compound, indicating microplate readings without EGFR degradation;
# Dmax is the maximum percentage of inhibition (degradation).
# The IC50 (DC50) value of a compound can be obtained by fitting the following equation
# Y=Bottom+(TOP−Bottom)/(1+((IC50/X)^hillslope))
# Wherein, X and Y are known values, and IC50, Hillslope, Top and Bottom are the parameters obtained by fitting with software. Y is the inhibition percentage (calculated from the equation), X is the concentration of the compound; IC50 is the concentration of the compound when the 50% inhibition is reached. The smaller the IC50 value is, the stronger the inhibitory ability of the compound is. Vice versa, the higher the IC50 value is, the weaker the inhibitory ability of the compound is; Hillslope represents the slope of the fitted curve, generally around 1*; Bottom represents the minimum value of the curve obtained by data fitting, which is generally 0%±20%; Top represents the maximum value of the curve obtained by data fitting, which is generally 100%±20%. The experimental data were fitted by calculating and analyzing with Dotmatics data analysis software.
# [2] = biological target: T2, EGFR L858R/T790M/C797S (BaF3-LTC cells) (Homo sapiens, UniProt P00533, C797S/L858R/T790M); experiment: EGFR degradation HTRF assay, BaF3-LTC cells; settings: BaF3-LTC, 16h treatment; for Dmax: maximum percentage of degradation, read-out: LTC Dmax (%); for DC50: read-out: LTC DC50
# T2 construct: expressed in transfected cells; host or cells: BaF3
# T2 sequence (P00533 25-1210 T790M/C797S/L858R): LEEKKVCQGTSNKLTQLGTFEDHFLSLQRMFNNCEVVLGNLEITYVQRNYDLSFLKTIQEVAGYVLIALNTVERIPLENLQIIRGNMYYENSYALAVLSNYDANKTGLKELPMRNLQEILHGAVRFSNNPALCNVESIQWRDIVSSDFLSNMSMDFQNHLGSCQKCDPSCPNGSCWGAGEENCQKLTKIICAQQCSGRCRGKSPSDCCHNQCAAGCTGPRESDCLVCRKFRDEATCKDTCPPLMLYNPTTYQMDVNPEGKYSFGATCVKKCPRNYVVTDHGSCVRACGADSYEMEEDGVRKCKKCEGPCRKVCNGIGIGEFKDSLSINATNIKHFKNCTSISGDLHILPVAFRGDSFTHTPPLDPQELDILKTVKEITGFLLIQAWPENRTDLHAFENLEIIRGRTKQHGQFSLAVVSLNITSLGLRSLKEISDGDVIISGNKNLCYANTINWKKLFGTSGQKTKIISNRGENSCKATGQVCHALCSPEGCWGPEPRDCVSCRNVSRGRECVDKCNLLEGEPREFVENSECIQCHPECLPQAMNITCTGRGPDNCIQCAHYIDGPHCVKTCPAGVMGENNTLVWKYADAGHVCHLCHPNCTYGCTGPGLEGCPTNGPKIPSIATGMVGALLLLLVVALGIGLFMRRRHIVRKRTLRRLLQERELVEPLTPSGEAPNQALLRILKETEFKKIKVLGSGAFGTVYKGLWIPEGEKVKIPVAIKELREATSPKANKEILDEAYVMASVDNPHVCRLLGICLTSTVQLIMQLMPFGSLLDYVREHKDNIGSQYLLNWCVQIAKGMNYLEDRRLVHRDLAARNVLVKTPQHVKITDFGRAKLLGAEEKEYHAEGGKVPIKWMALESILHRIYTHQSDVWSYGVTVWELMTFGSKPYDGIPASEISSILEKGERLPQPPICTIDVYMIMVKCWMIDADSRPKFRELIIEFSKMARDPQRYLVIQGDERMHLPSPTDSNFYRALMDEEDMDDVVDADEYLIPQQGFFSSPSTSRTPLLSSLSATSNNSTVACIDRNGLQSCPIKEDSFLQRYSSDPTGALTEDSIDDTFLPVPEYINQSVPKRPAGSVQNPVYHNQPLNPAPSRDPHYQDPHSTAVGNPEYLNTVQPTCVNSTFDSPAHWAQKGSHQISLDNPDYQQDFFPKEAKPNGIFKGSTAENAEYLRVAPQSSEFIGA
# Procedure, shortened: (§1)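 EGFR remaining after a 16 h, 37 °C exposure (8 doses, 5-fold steps from 10 uM final, 0.2% DMSO) was quantified by HTRF antibodies in cell lysate. Percent inhibition relative to DMSO control was fitted by four-parameter logistic to give DC50; Dmax denotes maximal degradation.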
# [3] = tested on: EGFR Del19/T790M/C797S (BaF3-DTC cells); experiment: EGFR degradation HTRF assay, BaF3-DTC cells; settings: 16h treatment; for DTC Dmax (%): maximum percentage of degradation; for DC50: read-out: DTC DC50
# Procedure, shortened: as §1
Structure (SMILES),DC50 [1],Dmax [1],Dmax [2],DC50 [2],DC50 [3],DTC Dmax (%) [3]
"COc1cc(N2CCC(N3CCN(CC4CCC(c5ccc(N6CCC(=O)NC6=O)cc5)CC4)CC3)CC2)ccc1Nc1ncc(Cl)c(Nc2ccccc2P(C)(C)=O)n1 (stereo not drawn) [Example 110, 1-(4-(4-((4-(1-(4-((5-chloro-4-((2-(dimethylphosphoryl)phenyl)amino)pyrimidin-2-yl)amino)-3-methoxyphenyl)piperidin-4-yl)piperazin-1-yl)methyl)cyclohexyl)phenyl)dihydropyrimidine-2,4(1H,3H)-dione]",49.6 nM,81.2%,,,,
"COc1cc(N2CCC(N3CCN(C(=O)CC4CCN(c5ccc(C6CCC(=O)NC6=O)cc5)CC4)CC3)CC2)ccc1Nc1ncc(Cl)c(Nc2ccccc2P(C)(C)=O)n1 (stereo not drawn) [Example 107, 3-(4-(4-(2-(4-(1-(4-((5-chloro-4-((2-(dimethylphosphoryl)phenyl)amino)pyrimidin-2-yl)amino)-3-methoxyphenyl)piperidin-4-yl)piperazin-1-yl)-2-oxoethyl)piperidin-1-yl)phenyl)piperidine-2,6-dione]",17.2 nM,79.3%,,,,
"CCc1cc(Nc2ncc(Br)c(Nc3ccc4nccnc4c3P(C)(C)=O)n2)c(OC)cc1N1CCC(N2CCN(CCCOc3ccc(C4CCC(=O)NC4=O)cc3)CC2)CC1 (stereo not drawn) [Example 18, 3-(4-(3-(4-(1-(4-((5-bromo-4-((5-(dimethylphosphoryl)quinoxalin-6-yl)amino)pyrimidin-2-yl)amino)-2-ethyl-5-methoxyphenyl)piperidin-4-yl)piperazin-1-yl)propoxy)phenyl)piperidine-2,6-dione]",15.4 nM,77.5%,,,,
"COc1cc(N2CCN(CCc3ccc(OC4CCC(=O)NC4=O)cc3)CC2)c(C)cc1Nc1ncc(Br)c(Nc2ccc3nccnc3c2P(C)(C)=O)n1 (stereo not drawn) [Example 93, 3-(4-(2-(4-(4-((5-bromo-4-((5-(dimethylphosphoryl)quinoxalin-6-yl)amino)pyrimidin-2-yl)amino)-5-methoxy-2-methylphenyl)piperazin-1-yl)ethyl)phenoxy)piperidine-2,6-dione]",130 nM,72.4%,,,,
"COc1cc(N2CCC(N3CCN(CCC4CCN(c5ccc(C6CCC(=O)NC6=O)cc5)CC4)CC3)CC2)ccc1Nc1ncc(Cl)c(Nc2ccccc2N(C)S(C)(=O)=O)n1 (stereo not drawn) [Example 121, N-(2-((5-chloro-2-((4-(4-(4-(2-(1-(4-(2,6-dioxopiperidin-3-yl)phenyl)piperidin-4-yl)ethyl)piperazin-1-yl)piperidin-1-yl)-2-methoxyphenyl)amino)pyrimidin-4-yl)amino)phenyl)-N-methylmethanesulfonamide]",19 nM,80.8%,,,,
"COc1cc(N2CCC(N3CCN(CCc4ccc(N5CCC(=O)NC5=O)cc4)CC3)CC2)ccc1Nc1ncc(Cl)c(Nc2ccccc2N(C)S(C)(=O)=O)n1 [Example 124, N-(2-((5-chloro-2-((4-(4-(4-(4-(2,4-dioxotetrahydropyrimidin-1(2H)-yl)phenethyl)piperazin-1-yl)piperidin-1-yl)-2-methoxyphenyl)amino)pyrimidin-4-yl)amino)phenyl)-N-methylmethanesulfonamide]",81.6 nM,80.8%,,,,
"COc1cc(N2CCC(NCCCCCCCc3ccc(C4CCC(=O)NC4=O)cc3)CC2)ccc1Nc1ncc(Cl)c(Nc2ccccc2N(C)S(C)(=O)=O)n1 (stereo not drawn) [Example 132, N-(2-((5-chloro-2-((4-(4-((7-(4-(2,6-dioxopiperidin-3-yl)phenyl)heptyl)amino)piperidin-1-yl)-2-methoxyphenyl)amino)pyrimidin-4-yl)amino)phenyl)-N-methylmethanesulfonamide]",34 nM,80%,,,,
"CCc1cc(Nc2ncc(Br)c(Nc3ccc4nccnc4c3P(C)(C)=O)n2)c(OC)cc1N1CCC(N2CCN(CCNc3cccc4c3CN(C3CCC(=O)NC3=O)C4=O)CC2)CC1 (stereo not drawn) [Example 248, 3-(4-((2-(4-(1-(4-((5-bromo-4-((5-(dimethylphosphoryl)quinoxalin-6-yl)amino)pyrimidin-2-yl)amino)-2-ethyl-5-methoxyphenyl)piperidin-4-yl)piperazin-1-yl)ethyl)amino)-1-oxoisoindolin-2-yl)piperidine-2,6-dione]",,,89.4%,9.39 nM,4.41 nM,89.62%
"CCc1cc(Nc2ncc(Br)c(Nc3ccc4nccnc4c3P(C)(C)=O)n2)c(OC)cc1N1CCC(N2CCN(CC3CN(c4ccc(C5CCC(=O)NC5=O)cc4)C3)CC2)CC1 (stereo not drawn) [Example 231, 3-(4-(3-((4-(1-(4-((5-bromo-4-((5-(dimethylphosphoryl)quinoxalin-6-yl)amino)pyrimidin-2-yl)amino)-2-ethyl-5-methoxyphenyl)piperidin-4-yl)piperazin-1-yl)methyl)azetidin-1-yl)phenyl)piperidine-2,6-dione]",,,77.6%,25.3 nM,8.28 nM,76.04%
"CCc1cc(Nc2ncc(Br)c(Nc3ccc4ncn(C)c(=O)c4c3P(C)(C)=O)n2)c(OC)cc1N1CCC(N2CCN(CCc3cccc4c3n(C)c(=O)n4C3CCC(=O)NC3=O)CC2)CC1 (stereo not drawn) [Example 698, 3-(4-(2-(4-(1-(4-((5-bromo-4-((5-(dimethylphosphoryl)-3-methyl-4-oxo-3,4-dihydroquinazolin-6-yl)amino)pyrimidin-2-yl)amino)-2-ethyl-5-methoxyphenyl)piperidin-4-yl)piperazin-1-yl)ethyl)-3-methyl-2-oxo-2,3-dihydro-1H-benzo[d]imidazol-1-yl)piperidine-2,6-dione]",,,93.6%,4.28 nM,0.601 nM,94.26%

# More lines, main results first:
DC50 [1],Dmax [1],Dmax [2],DC50 [2],DC50 [3],Structure (SMILES),DTC Dmax (%) [3]
66.7 nM,81%,,,,"COc1cc(N2CCN(CCc3ccc(C4CCC(=O)NC4=O)cc3)CC2)c(C)cc1Nc1ncc(Br)c(Nc2ccc3nccnc3c2P(C)(C)=O)n1 (stereo not drawn) [Example 86, 3-(4-(2-(4-(4-((5-bromo-4-((5-(dimethylphosphoryl)quinoxalin-6-yl)amino)pyrimidin-2-yl)amino)-5-methoxy-2-methylphenyl)piperazin-1-yl)ethyl)phenyl)piperidine-2,6-dione]",
19.2 nM,82%,,,,"COc1cc(N2CCC(N3CCN(C(=O)CCCCN4CCN(c5ccc6c(c5)C(=O)N(C5CCC(=O)NC5=O)C6=O)CC4)CC3)CC2)ccc1Nc1ncc(Cl)c(Nc2ccccc2NS(C)(=O)=O)n1 (stereo not drawn) [Example 141, N-(2-((5-chloro-2-((4-(4-(4-(5-(4-(2-(2,6-dioxopiperidin-3-yl)-1,3-dioxoisoindolin-5-yl)piperazin-1-yl)pentanoyl)piperazin-1-yl)piperidin-1-yl)-2-methoxyphenyl)amino)pyrimidin-4-yl)amino)phenyl)methanesulfonamide]",
32.2 nM,58.5%,,,,"COc1cc(N2CCN(CCC3CCN(c4ccc(N5CCC(=O)NC5=O)cc4)CC3)CC2)c(C)cc1Nc1ncc(Br)c(Nc2ccc3nccnc3c2P(C)(C)=O)n1 [Example 94, 1-(4-(4-(2-(4-(4-((5-bromo-4-((5-(dimethylphosphoryl)quinoxalin-6-yl)amino)pyrimidin-2-yl)amino)-5-methoxy-2-methylphenyl)piperazin-1-yl)ethyl)piperidin-1-yl)phenyl)dihydropyrimidine-2,4(1H,3H)-dione]",
38 nM,77.6%,,,,"CN(c1ccccc1Nc1nc(Nc2ccc(N3CC4(CN(CCc5ccc(C6CCC(=O)NC6=O)cc5)C4)C3)c(F)c2)ncc1Cl)S(C)(=O)=O (stereo not drawn) [Example 134, N-(2-((5-chloro-2-((4-(6-(4-(2,6-dioxopiperidin-3-yl)phenethyl)-2,6-diazaspiro[3.3]heptan-2-yl)-3-fluorophenyl)amino)pyrimidin-4-yl)amino)phenyl)-N-methylmethanesulfonamide]",
189 nM,79.6%,,,,"COc1cc(N2CCC(N3CCN(CCCOc4ccc(OC5CCC(=O)NC5=O)cc4)CC3)CC2)ccc1Nc1ncc(Cl)c(Nc2ccccc2P(C)(C)=O)n1 (stereo not drawn) [Example 109, 3-(4-(3-(4-(1-(4-((5-chloro-4-((2-(dimethylphosphoryl)phenyl)amino)pyrimidin-2-yl)amino)-3-methoxyphenyl)piperidin-4-yl)piperazin-1-yl)propoxy)phenoxy)piperidine-2,6-dione]",
